Reference: PMC9415509, “Pro-Apoptotic Antitumoral Effect of Novel Acridine-Core Naphthoquinone Compounds against Oral Squamous Cell Carcinoma” (Molecules, 2022)

Key:
SCC4 OSCC cell line = assay: MTT cell viability assay (cytotoxicity), SCC4; type: cell-based, human
Method: Cells and reagents. Human SCC-4, SCC-9, and SCC-25 cells, derived from a human oral tongue SCC (squamous cell carcinoma) were obtained from the ATCC (CRL-1624, CRL-1629, and CRL-1628, respectively) and maintained in 1:1 DMEM/F12 (Dulbecco’s modified Eagle medium and Ham’s F12 medium; Gibco (Thermo Fisher, Waltham, MA, USA)) supplemented with 10% (v/v) FBS (fetal bovine serum; Invitrogen, Thermo Fisher, Waltham, MA, USA) and 400 ng/mL hydrocortisone (Sigma-Aldrich Co., St. Louis, MO, USA). Primary normal human gingival fibroblasts were obtained from the ATCC (PCS-201-018) and maintained in DMEM supplemented with 10% (v/v) FBS and were used in a maximum of six passages. The cells were grown in a humidified environment containing 5% CO2 at 37 °C. […] Carboplatin stock was prepared in water (Fauldcarbo®; LibbsFarmacêutica, São Paulo, SP, Brazil) and was used as a standard anticancer compound.
Cell viability assay (cytotoxicity) and compound stability assay. The viability of SCC cell lines and primary human fibroblast cells was evaluated using the MTT assay as in [48]. Briefly, the cells were grown in triplicates in 96-well plates (5 × 10^3 cells/well) until confluence. Then, the medium was removed, fresh medium was added, and the cells were returned to the incubator in the presence of different compounds. DMSO at the same concentrations was used as a 100% cell viability control. After 48 h, the cells were incubated with 5 mg/mL MTT reagent (3-(4,5-dimethyl-2-thiazolyl)-2,5-diphenyl-2-H-tetrazolium bromide) (Sigma-Aldrich Co., St. Louis, MO, USA) for 3.5 h. After that, formazan crystals were dissolved in MTT solvent solution (DMSO/methanol 1:1 v/v) and the absorbance at 560 nm was evaluated using an EPOCH microplate spectrophotometer (BioTek Instruments, Winooski, VT, USA) with the background absorbance at 670 nm subtracted.
Statistical analysis, IC50 calculation. The data are presented as means ±\SD. IC50 values for the MTT assays were obtained by nonlinear regression using the […] 5.0 program (Intuitive Software for Science, San Diego, CA, USA) from at least three independent experiments. A dose–response (inhibitor) vs. response curve using the least squares method was used to determine the IC50, SD, and R^2 of the data. The selectivity index was calculated as SI = IC50 of the compound in normal oral fibroblast cells/IC50 of the same compound for each oral cancer cell line (SCC-4, SCC-9, and SCC-25) and the mean was calculated when indicated.

SCC9 cells = assay: ROS production (ROS-Glo H2O2 assay); type: cell-based, human; conditions: SCC9, 2 × IC50, 3, 6, 24 and 48 h
Method: ROS production. The hydrogen peroxide (H2O2) luminescence assay was performed using the ROS-Glo™ H2O2 assay kit (Promega Corporation, Madison, WI, USA). […] A plate with wells without cells was used as a control. The cells and cell-free wells remained in treatment at the times of interest and, 2 h before the completion of the times, the well volumes were removed to reduce to 40 µL per well. Then, the positive control of menadione, a polycyclic aromatic ketone based on 1,4-naphthoquinone, was used to treat its respective well, and H2O2 substrate was added for all treatments, followed by the incubation of the plate for the 2 h remaining. After the times of 3, 6, 24, and 48 h, the detection solution was added, and the plates remained at room temperature for 20 min, following the reading in the luminometer.

Compound: CC1(C)CC(=O)C2=C(C1)NC1=C(C(=O)c3ccccc3C1=O)C2c1ccc(Cl)cc1Cl (stereo not drawn) [4e, 12-(2,4-dichlorophenyl)-3,3-dimethyl-3,4-dihydrobenzo[b]acridine-1,6,11(2H,5H,12H)-trione]
- IC50 (SCC4 OSCC cell line; Homo sapiens, SCC-4, SCC4, 48 h, MTT, read-out: Oral Tumor Cells SCC4 IC50): 53.8 µM
- SCC4 S.I. (SCC4 OSCC cell line; IC50 normal oral fibroblasts / IC50 SCC4): 1.6
- ROS production (SCC9 cells): low production of ROS
